The values below come from US11795171B2, “Pyrrolotriazinones and imidazotriazinones as ubiquitin-specific protease 7 inhibitors” (Valo Health, Inc., priority 2014, dated 2023).

The target in the assay is USP7 (Homo sapiens (Human), UniProt Q93009). The experiment in a line: USP7 Assay B (Ubitquin-Rhodamine110 Assay). In kind it is biochemical. Particulars: Ub-Rh110 substrate 25 nM.

The structures appear in SMILES notation.

Chain of USP7 (Q93009 208-1102): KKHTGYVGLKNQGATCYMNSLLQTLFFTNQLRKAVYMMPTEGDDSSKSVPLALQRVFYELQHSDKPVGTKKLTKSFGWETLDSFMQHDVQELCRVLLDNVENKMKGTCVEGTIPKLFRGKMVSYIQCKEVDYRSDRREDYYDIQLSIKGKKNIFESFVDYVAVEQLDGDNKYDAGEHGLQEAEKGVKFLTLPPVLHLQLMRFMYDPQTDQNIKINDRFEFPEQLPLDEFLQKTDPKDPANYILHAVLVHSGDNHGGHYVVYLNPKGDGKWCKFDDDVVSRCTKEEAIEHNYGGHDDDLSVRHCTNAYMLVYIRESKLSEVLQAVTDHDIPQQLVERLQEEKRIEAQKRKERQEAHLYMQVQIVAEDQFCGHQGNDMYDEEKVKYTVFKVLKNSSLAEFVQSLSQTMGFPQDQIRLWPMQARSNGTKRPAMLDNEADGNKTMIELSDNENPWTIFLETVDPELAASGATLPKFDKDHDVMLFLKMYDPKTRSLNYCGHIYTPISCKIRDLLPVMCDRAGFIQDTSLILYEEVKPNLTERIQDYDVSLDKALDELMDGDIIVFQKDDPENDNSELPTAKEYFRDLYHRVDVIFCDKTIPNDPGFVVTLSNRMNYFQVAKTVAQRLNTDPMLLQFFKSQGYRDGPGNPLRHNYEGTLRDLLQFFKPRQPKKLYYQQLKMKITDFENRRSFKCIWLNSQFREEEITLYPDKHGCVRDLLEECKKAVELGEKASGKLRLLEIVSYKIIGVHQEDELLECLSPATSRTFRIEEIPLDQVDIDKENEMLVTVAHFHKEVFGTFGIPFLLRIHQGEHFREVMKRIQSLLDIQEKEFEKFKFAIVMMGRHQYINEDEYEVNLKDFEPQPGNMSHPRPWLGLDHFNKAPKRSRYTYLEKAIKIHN

Turning to `O=C(c1ccc(Oc2ccccc2)cc1)N1CCC(O)(Cn2cnn3cccc3c2=O)CC1` [Compound I-80, 3-((4-hydroxy-1-(4-phenoxybenzoyl)piperidin-4-yl)methyl)pyrrolo[2,1-f][1,2,4]triazin-4(3H)-one], the IC50 (in general, the midpoint of a concentration-inhibition curve) was greater than 10 µM.
The figure for `CC(=O)Nc1cc2c(=O)n(CC3(O)CCN(C(=O)C[C@@H](C)c4ccccc4)CC3)cnn2c1` [Compound I-81, (R)-N-(3-((4-hydroxy-1-(3-phenylbutanoyl)piperidin-4-yl)methyl)-4-oxo-3,4-dihydropyrrolo[2,1-f][1,2,4]triazin-6-yl)acetamide] is 0.2 to 1 µM.
As for `CNC(=O)Nc1cc2c(=O)n(CC3(O)CCN(C(=O)C[C@@H](C)c4ccccc4)CC3)cnn2c1` [Compound I-82, (R)-1-(3-((4-hydroxy-1-(3-phenylbutanoyl)piperidin-4-yl)methyl)-4-oxo-3,4-dihydropyrrolo[2,1-f][1,2,4]triazin-6-yl)-3-methylurea], the figure is 0.2 to 1 µM; as for `Cc1cc2c(=O)n(CC3(O)CCN(C(=O)C(C)Cc4ccccc4)CC3)cnn2c1` (stereo not shown) [Compound I-84, 3-((4-hydroxy-1-(2-methyl-3-phenylpropanoyl)piperidin-4-yl)methyl)-6-methylpyrrolo[2,1-f][1,2,4]triazin-4(3H)-one], 1 to 10 µM; as for `O=C(Nc1cccc(Cl)c1)Nc1cc2c(=O)n(CC3(O)CCN(C(=O)C4CC4)CC3)cnn2c1` [Compound I-85, 1-(3-chlorophenyl)-3-(3-((1-(cyclopropanecarbonyl)-4-hydroxypiperidin-4-yl)methyl)-4-oxo-3,4-dihydropyrrolo[2,1-f][1,2,4]triazin-6-yl)urea], greater than 10 µM.
As for `Cc1cccc(NC(=O)Nc2cc3c(=O)n(CC4(O)CCN(C(=O)C5CC5)CC4)cnn3c2)c1` [Compound I-86, 1-(3-((1-(cyclopropanecarbonyl)-4-hydroxypiperidin-4-yl)methyl)-4-oxo-3,4-dihydropyrrolo[2,1-f][1,2,4]triazin-6-yl)-3-(m-tolyl)urea], the figure is greater than 10 µM; as for `O=C(NCc1ccc(F)cc1)Nc1cc2c(=O)n(CC3(O)CCN(C(=O)C4CC4)CC3)cnn2c1` [Compound I-87, 1-(3-((1-(cyclopropanecarbonyl)-4-hydroxypiperidin-4-yl)methyl)-4-oxo-3,4-dihydropyrrolo[2,1-f][1,2,4]triazin-6-yl)-3-(4-fluorobenzyl)urea], greater than 10 µM; as for `O=C(Nc1ccc(F)cc1)Nc1cc2c(=O)n(CC3(O)CCN(C(=O)C4CC4)CC3)cnn2c1` [Compound I-88, 1-(3-((1-(cyclopropanecarbonyl)-4-hydroxypiperidin-4-yl)methyl)-4-oxo-3,4-dihydropyrrolo[2,1-f][1,2,4]triazin-6-yl)-3-(4-fluorophenyl)urea], greater than 10 µM.
`Cc1ccc(NC(=O)Nc2cc3c(=O)n(CC4(O)CCN(C(=O)C5CC5)CC4)cnn3c2)cc1` [Compound I-89, 1-(3-((1-(cyclopropanecarbonyl)-4-hydroxypiperidin-4-yl)methyl)-4-oxo-3,4-dihydropyrrolo[2,1-f][1,2,4]triazin-6-yl)-3-(p-tolyl)urea] returned an IC50 greater than 10 µM.
The compound `O=C(Nc1ccc2c(c1)CCC2)Nc1cc2c(=O)n(CC3(O)CCN(C(=O)C4CC4)CC3)cnn2c1` [Compound I-90, 1-(3-((1-(cyclopropanecarbonyl)-4-hydroxypiperidin-4-yl)methyl)-4-oxo-3,4-dihydropyrrolo[2,1-f][1,2,4]triazin-6-yl)-3-(2,3-dihydro-1H-inden-5-yl)urea] yielded an IC50 greater than 10 µM.
In turn, `O=C(NCc1ccc(Cl)cc1)Nc1cc2c(=O)n(CC3(O)CCN(C(=O)C4CC4)CC3)cnn2c1` [Compound I-91, 1-(4-chlorobenzyl)-3-(3-((1-(cyclopropanecarbonyl)-4-hydroxypiperidin-4-yl)methyl)-4-oxo-3,4-dihydropyrrolo[2,1-f][1,2,4]triazin-6-yl)urea] displayed an IC50 greater than 10 µM.
As for `Cc1ccc(CNC(=O)Nc2cc3c(=O)n(CC4(O)CCN(C(=O)C5CC5)CC4)cnn3c2)cc1` [Compound I-92, 1-(3-((1-(cyclopropanecarbonyl)-4-hydroxypiperidin-4-yl)methyl)-4-oxo-3,4-dihydropyrrolo[2,1-f][1,2,4]triazin-6-yl)-3-(4-methylbenzyl)urea], the figure is greater than 10 µM; as for `O=C(Nc1cc(F)cc(F)c1)Nc1cc2c(=O)n(CC3(O)CCN(C(=O)C4CC4)CC3)cnn2c1` [Compound I-93, 1-(3-((1-(cyclopropanecarbonyl)-4-hydroxypiperidin-4-yl)methyl)-4-oxo-3,4-dihydropyrrolo[2,1-f][1,2,4]triazin-6-yl)-3-(3,5-difluorophenyl)urea], greater than 10 µM.
The compound `O=C(NCc1ccccc1F)Nc1cc2c(=O)n(CC3(O)CCN(C(=O)C4CC4)CC3)cnn2c1` [Compound I-94, 1-(3-((1-(cyclopropanecarbonyl)-4-hydroxypiperidin-4-yl)methyl)-4-oxo-3,4-dihydropyrrolo[2,1-f][1,2,4]triazin-6-yl)-3-(2-fluorobenzyl)urea] yielded an IC50 greater than 10 µM.
As for `C[C@@H](NC(=O)Nc1cc2c(=O)n(CC3(O)CCN(C(=O)C4CC4)CC3)cnn2c1)c1ccccc1` [Compound I-95, (R)-1-(3-((1-(cyclopropanecarbonyl)-4-hydroxypiperidin-4-yl)methyl)-4-oxo-3,4-dihydropyrrolo[2,1-f][1,2,4]triazin-6-yl)-3-(1-phenylethyl)urea], the figure is greater than 10 µM; as for `O=C(Nc1cccc(F)c1)Nc1cc2c(=O)n(CC3(O)CCN(C(=O)C4CC4)CC3)cnn2c1` [Compound I-96, 1-(3-((1-(cyclopropanecarbonyl)-4-hydroxypiperidin-4-yl)methyl)-4-oxo-3,4-dihydropyrrolo[2,1-f][1,2,4]triazin-6-yl)-3-(3-fluorophenyl)urea], greater than 10 µM.
As for `Cc1c(F)cccc1NC(=O)Nc1cc2c(=O)n(CC3(O)CCN(C(=O)C4CC4)CC3)cnn2c1` [Compound I-97, 1-(3-((1-(cyclopropanecarbonyl)-4-hydroxypiperidin-4-yl)methyl)-4-oxo-3,4-dihydropyrrolo[2,1-f][1,2,4]triazin-6-yl)-3-(3-fluoro-2-methylphenyl)urea], the figure is greater than 10 µM; as for `Cc1cccc(NC(=O)Nc2cc3c(=O)n(CC4(O)CCN(C(=O)C5CC5)CC4)cnn3c2)c1C` [Compound I-98, 1-(3-((1-(cyclopropanecarbonyl)-4-hydroxypiperidin-4-yl)methyl)-4-oxo-3,4-dihydropyrrolo[2,1-f][1,2,4]triazin-6-yl)-3-(2,3-dimethylphenyl)urea], greater than 10 µM.
As for `Cc1ccc(NC(=O)Nc2cc3c(=O)n(CC4(O)CCN(C(=O)C5CC5)CC4)cnn3c2)c(C)c1` [Compound I-99, 1-(3-((1-(cyclopropanecarbonyl)-4-hydroxypiperidin-4-yl)methyl)-4-oxo-3,4-dihydropyrrolo[2,1-f][1,2,4]triazin-6-yl)-3-(2,4-dimethylphenyl)urea], the figure is greater than 10 µM; as for `N#Cc1ccc(NC(=O)Nc2cc3c(=O)n(CC4(O)CCN(C(=O)C5CC5)CC4)cnn3c2)cc1` [Compound I-100, 1-(4-cyanophenyl)-3-(3-((1-(cyclopropanecarbonyl)-4-hydroxypiperidin-4-yl)methyl)-4-oxo-3,4-dihydropyrrolo[2,1-f][1,2,4]triazin-6-yl)urea], greater than 10 µM.
On to `COc1cccc(NC(=O)Nc2cc3c(=O)n(CC4(O)CCN(C(=O)C5CC5)CC4)cnn3c2)c1` [Compound I-101, 1-(3-((1-(cyclopropanecarbonyl)-4-hydroxypiperidin-4-yl)methyl)-4-oxo-3,4-dihydropyrrolo[2,1-f][1,2,4]triazin-6-yl)-3-(3-methoxyphenyl)urea], for which the IC50 is greater than 10 µM.
As for `O=C(Nc1cc2c(=O)n(CC3(O)CCN(C(=O)C4CC4)CC3)cnn2c1)c1ccc(C(F)(F)F)cc1` [Compound I-102, N-(3-((1-(cyclopropanecarbonyl)-4-hydroxypiperidin-4-yl)methyl)-4-oxo-3,4-dihydropyrrolo[2,1-f][1,2,4]triazin-6-yl)-4-(trifluoromethyl)benzamide], the figure is greater than 10 µM.
Consider `O=C(Cc1c(Cl)cccc1Cl)Nc1cc2c(=O)n(CC3(O)CCN(C(=O)C4CC4)CC3)cnn2c1` [Compound I-103, N-(3-((1-(cyclopropanecarbonyl)-4-hydroxypiperidin-4-yl)methyl)-4-oxo-3,4-dihydropyrrolo[2,1-f][1,2,4]triazin-6-yl)-2-(2,6-dichlorophenyl)acetamide], for which the IC50 is greater than 10 µM.
The compound `O=C(COc1ccc(OC(F)(F)F)cc1)Nc1cc2c(=O)n(CC3(O)CCN(C(=O)C4CC4)CC3)cnn2c1` [Compound I-104, N-(3-((1-(cyclopropanecarbonyl)-4-hydroxypiperidin-4-yl)methyl)-4-oxo-3,4-dihydropyrrolo[2,1-f][1,2,4]triazin-6-yl)-2-(4-(trifluoromethoxy)phenoxy)acetamide] yielded an IC50 greater than 10 µM.
As for `O=C(COc1ccc(Cl)c(Cl)c1)Nc1cc2c(=O)n(CC3(O)CCN(C(=O)C4CC4)CC3)cnn2c1` [Compound I-105, N-(3-((1-(cyclopropanecarbonyl)-4-hydroxypiperidin-4-yl)methyl)-4-oxo-3,4-dihydropyrrolo[2,1-f][1,2,4]triazin-6-yl)-2-(3,4-dichlorophenoxy)acetamide], the figure is greater than 10 µM.
The figure for `O=C(COc1cccc(Cl)c1Cl)Nc1cc2c(=O)n(CC3(O)CCN(C(=O)C4CC4)CC3)cnn2c1` [Compound I-106, N-(3-((1-(cyclopropanecarbonyl)-4-hydroxypiperidin-4-yl)methyl)-4-oxo-3,4-dihydropyrrolo[2,1-f][1,2,4]triazin-6-yl)-2-(2,3-dichlorophenoxy)acetamide] is 1 to 10 µM; for `Cc1ccc(C(=O)Nc2cc3c(=O)n(CC4(O)CCN(C(=O)C5CC5)CC4)cnn3c2)cc1C` [Compound I-107, N-(3-((1-(cyclopropanecarbonyl)-4-hydroxypiperidin-4-yl)methyl)-4-oxo-3,4-dihydropyrrolo[2,1-f][1,2,4]triazin-6-yl)-3,4-dimethylbenzamide] it is 1 to 10 µM; for `Cc1ccc(C(=O)Nc2cc3c(=O)n(CC4(O)CCN(C(=O)C5CC5)CC4)cnn3c2)cc1Cl` [Compound I-108, 3-chloro-N-(3-((1-(cyclopropanecarbonyl)-4-hydroxypiperidin-4-yl)methyl)-4-oxo-3,4-dihydropyrrolo[2,1-f][1,2,4]triazin-6-yl)-4-methylbenzamide] it is greater than 10 µM.
